These results are taken from US11802127B2, “3,4-dihydro-2,7-naphthyridine-1,6(2H,7H)-diones as MEK inhibitors” (Pfizer Inc., priority 2021, dated 2023).

SMILES strings stand for the structures. Structures can show the parent of a compound that is named as a salt.

The subject of data set [1] is ERK1/2(Thr202/Tyr204) phosphorylation (MEK-dependent) in A375 cells. Nature of the data set: Cellular Phospho-p44/42 MAPK (Erk1/2) (Thr202/Tyr204) Assay. In kind it is cell-based. The note with it: Homo sapiens, A-375, 1-hour incubation, pERK1/2 (Thr202/Tyr204) In-Cell Western normalized to GAPDH. Summed up: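 A375 cells exposed 1 h to 10-point 1:3 dilutions (top 20–1 μM, 0.5% DMSO), then fixed and stained for pERK1/2 (Thr202/Tyr204) by In-Cell Western. Signal normalized to GAPDH per well; DMSO and 1 μM reference inhibitor define 0 and 100% inhibition.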

Data set [2] can be described thus: MDR1 LLC-PK1 and BCRP MDCKII Permeability Assay: permeability coefficient (Papp). In kind it is in vitro ADME. The settings on record: MDCK, test article 1 μM, 37° C. On the procedure: (§1) Both LLC-PK1 and MDR1 transfected LLC-PK1 cells were cultured and plated according to manufacturer's recommendations with the exception that the passage media contained only 2% fetal bovine serum to extend passage time out to seven days.
(§2) BCRP transfected MDCKII canine P-gp knockout cell line was cultured and plated according to manufacturer's recommendations.
(§3) Both positive and negative controls were used to assess functionality of P-gp or BCRP efflux in the assays. Stock solutions for assay controls and the test article were prepared in DMSO for final test concentrations of 10 and 1 μM, respectively. Final organic concentration in the assay was 1%. All dosing solutions contained 10 μM lucifer yellow to monitor LLC-PK1 or MDCKII cell monolayer integrity.
(§4) For the apical to basolateral determination (A to B), 75 μL of the test article in transport buffer were added to the apical side of the individual transwells and 250 μL of basolateral media, without compound or lucifer yellow, were added to each well. For the basolateral to apical determination (B to A), 250 μL of test article in transport buffer were added to each well and 75 μL transport buffer, without compound or lucifer yellow, were added to each transwell. All tests were performed in triplicate, and each compound was tested for both apical to basolateral and basolateral to apical transport. The plates were incubated for 2 hours on a Lab-Line Instruments Titer Orbital Shaker (VWR, West Chester, PA) at 50 rpm and 37° C. with 5% CO2. All culture plates were removed from the incubator and 50 μL of media were removed from the apical and basolateral portion of each well and added to 150 μL of 1 μM labetalol in 2:1 acetonitrile (acetonitrile): H2O, v/v.
(§5) The plates were read using a Molecular Devices (Sunnyvale, CA) Gemini Fluorometer to evaluate the lucifer yellow concentrations at excitation/emission wavelengths of 425/535 nm. These values were accepted when found to be below 2% for apical to basolateral and 5% basolateral to apical flux across the MDR1-transfected LLC-PK1 or BCRP-transfected MDCKII cell monolayers. The plates were sealed and the contents of each well analyzed by LC-MS/MS. The compound concentrations were determined from the ratio of the peak areas of the compound to the internal standard (labetalol) in comparison to the dosing solution.
(§6) The LC-MS/MS system was comprised of an HTS-PAL autosampler (Leap Technologies, Carrboro, NC), an HP1200 HPLC (Agilent, Palo Alto, CA), and a MDS Sciex 4000 Q Trap system (Applied Biosystems, Foster City, CA). […] The total run time, including re-equilibration, for a single injection was 1.2 minutes. Mass spectrometric detection of the analytes was accomplished using the ion spray positive mode. Analyte responses were measured by multiple reaction monitoring (MRM) of transitions unique to each compound (the protonated precursor ion and selected product ions for each test article and m/z 329 to m/z 162 for labetalol, the internal standard).

For the next data set, the target named is T1, P-gp (MDR1) (Homo sapiens, UniProt P08183).
T1 construct: expressed in transfected cells; host or cells: LLC-PK1 (porcine kidney) cells transfected with MDR1
The data set is described as follows: Efflux ratio in MDR1 transfected LLC-PK1 cells. In kind it is in vitro ADME. The settings on record: pig, Papp(B−A)/Papp(A−B). On the procedure: as §1, §3, §4, §5, §6
(§7) An efflux ratio is calculated from the mean apical to basolateral (A−B) Papp data and basolateral to apical (B−A) Papp data: Efflux ratio=Papp(B−A)/Papp(A−B)

The next data set addresses T2, BCRP (hBCRP) (Homo sapiens, UniProt Q9UNQ0).
T2 construct: expressed in transfected cells; host or cells: MDCKII (canine kidney) cells, canine P-gp knockout, transfected with BCRP
T2 sequence (Q9UNQ0 1-655): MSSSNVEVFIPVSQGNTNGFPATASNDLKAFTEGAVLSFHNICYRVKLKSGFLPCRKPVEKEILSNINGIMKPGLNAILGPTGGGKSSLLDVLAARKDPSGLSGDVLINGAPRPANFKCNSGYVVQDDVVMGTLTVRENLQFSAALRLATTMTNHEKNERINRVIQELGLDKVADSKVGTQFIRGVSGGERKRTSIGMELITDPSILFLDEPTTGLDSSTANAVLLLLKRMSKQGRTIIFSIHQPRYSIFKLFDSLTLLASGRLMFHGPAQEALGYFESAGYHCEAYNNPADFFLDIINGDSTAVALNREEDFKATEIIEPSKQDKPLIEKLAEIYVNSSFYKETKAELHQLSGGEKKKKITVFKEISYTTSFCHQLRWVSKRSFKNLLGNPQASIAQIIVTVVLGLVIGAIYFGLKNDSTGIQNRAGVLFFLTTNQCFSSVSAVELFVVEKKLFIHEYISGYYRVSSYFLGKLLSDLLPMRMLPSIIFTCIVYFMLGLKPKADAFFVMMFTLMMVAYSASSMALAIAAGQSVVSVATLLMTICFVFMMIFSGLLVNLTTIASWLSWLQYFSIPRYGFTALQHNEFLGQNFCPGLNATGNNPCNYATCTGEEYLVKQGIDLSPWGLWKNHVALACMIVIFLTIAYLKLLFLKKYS
The data set is described as follows: Efflux ratio in BCRP transfected MDCKII canine P-gp knockout cells. The format is in vitro ADME. The settings on record: Papp(B−A)/Papp(A−B), read-out: Efflux ratio MDCKII-hBCRP knock-in,canine pg-P KO. As for the experimental part:
as §2, §3, §4, §5, §6, §7

T1 sequence (P08183 whole entry): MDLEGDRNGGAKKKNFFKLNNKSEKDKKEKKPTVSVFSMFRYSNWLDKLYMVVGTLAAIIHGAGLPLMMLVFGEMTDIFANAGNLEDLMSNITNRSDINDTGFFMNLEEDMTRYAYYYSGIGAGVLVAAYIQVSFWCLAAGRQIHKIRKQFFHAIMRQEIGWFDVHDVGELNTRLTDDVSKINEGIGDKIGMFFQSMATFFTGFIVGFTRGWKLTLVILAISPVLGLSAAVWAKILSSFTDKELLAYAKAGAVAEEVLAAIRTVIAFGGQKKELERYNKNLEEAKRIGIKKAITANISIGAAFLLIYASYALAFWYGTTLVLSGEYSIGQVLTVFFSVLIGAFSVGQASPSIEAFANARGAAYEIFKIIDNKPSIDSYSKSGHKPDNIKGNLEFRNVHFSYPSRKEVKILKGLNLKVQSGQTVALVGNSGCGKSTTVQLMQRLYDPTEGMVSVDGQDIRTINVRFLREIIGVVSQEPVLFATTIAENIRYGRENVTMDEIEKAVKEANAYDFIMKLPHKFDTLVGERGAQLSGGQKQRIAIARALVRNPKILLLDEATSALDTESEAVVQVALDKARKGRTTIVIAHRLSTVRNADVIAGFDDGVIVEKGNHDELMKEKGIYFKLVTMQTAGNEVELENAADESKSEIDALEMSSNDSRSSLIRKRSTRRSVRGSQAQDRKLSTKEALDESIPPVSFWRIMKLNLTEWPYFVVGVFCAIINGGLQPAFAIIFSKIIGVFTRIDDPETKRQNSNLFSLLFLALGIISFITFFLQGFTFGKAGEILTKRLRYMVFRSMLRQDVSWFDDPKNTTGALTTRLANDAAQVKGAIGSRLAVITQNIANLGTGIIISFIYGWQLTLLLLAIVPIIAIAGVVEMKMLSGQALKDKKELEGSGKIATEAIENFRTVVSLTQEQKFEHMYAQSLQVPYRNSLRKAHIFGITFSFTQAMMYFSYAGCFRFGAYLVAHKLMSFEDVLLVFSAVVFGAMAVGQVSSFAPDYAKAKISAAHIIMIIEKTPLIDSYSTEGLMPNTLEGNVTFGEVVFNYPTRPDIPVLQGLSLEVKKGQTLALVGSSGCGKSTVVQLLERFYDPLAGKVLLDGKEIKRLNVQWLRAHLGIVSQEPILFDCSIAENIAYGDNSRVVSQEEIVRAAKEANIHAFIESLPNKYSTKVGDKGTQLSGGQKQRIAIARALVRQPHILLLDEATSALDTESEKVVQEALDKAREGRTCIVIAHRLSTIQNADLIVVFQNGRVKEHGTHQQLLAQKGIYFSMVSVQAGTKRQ

For orientation: IC50 means the concentration needed to halve the response being measured. Lower therefore signals higher potency. As usually defined, the Papp is the rate of passage across a membrane or cell layer, normalised by area and donor concentration. Read a high Papp as ready permeation. With `C[C@H](O)CON1CCc2cc(=O)n(C)c(Nc3ccc(I)cc3F)c2C1=O` [Example 31, (S)-8-((2-fluoro-4-iodophenyl)amino)-2-(2-hydroxypropoxy)-7-methyl-3,4-dihydro-2,7-naphthyridine-1,6(2H,7H)-dione], the IC50 in data set [1] is 0.001 µM. Further, in data set [2], the Papp at 2 h, 1 μM was 248 nm/s. The efflux ratio at 2 h, 1 μM was found to be 5.3 at P-gp (MDR1) and 4.4 at BCRP (hBCRP).
In the same order, the values of `C[C@@H](O)CON1CCc2cc(=O)n(C)c(Nc3ccc(I)cc3F)c2C1=O` [Example 32, (R)-8-((2-fluoro-4-iodophenyl)amino)-2-(2-hydroxypropoxy)-7-methyl-3,4-dihydro-2,7-naphthyridine-1,6(2H,7H)-dione] are 0.01 µM, 248 nm/s, 6.5 and 5.2.
In the same order, the values of `C[C@H](O)CON1CCc2cc(=O)n(C)c(Nc3ccc(Br)cc3F)c2C1=O` [Example 33, (S)-8-((4-bromo-2-fluorophenyl)amino)-2-(2-hydroxypropoxy)-7-methyl-3,4-dihydro-2,7-naphthyridine-1,6(2H,7H)-dione] are 0.019 µM, 247 nm/s, 4 and 8.3.
As for `Cn1c(Nc2ccc(Br)cc2F)c2c(c(Cl)c1=O)CCN(OCCO)C2=O` [Example 37, 8-((4-bromo-2-fluorophenyl)amino)-5-chloro-2-(2-hydroxyethoxy)-7-methyl-3,4-dihydro-2,7-naphthyridine-1,6(2H,7H)-dione], the IC50 in data set [1] is 0.116 µM. In addition, in data set [2], the Papp at 2 h, 1 μM worked out at 286 nm/s. Besides, the values for the efflux ratio at 2 h, 1 μM at P-gp (MDR1) and at BCRP (hBCRP) were 2.7 and 3.3, respectively.
The compound `Cn1c(Nc2ccc(I)cc2F)c2c(c(Cl)c1=O)CCN(OCCO)C2=O` [Example 38, 5-chloro-8-((2-fluoro-4-iodophenyl)amino)-2-(2-hydroxyethoxy)-7-methyl-3,4-dihydro-2,7-naphthyridine-1,6(2H,7H)-dione] yielded an IC50 in data set [1] of 0.007 µM. In data set [2], this compound returned a Papp at 2 h, 1 μM of 246 nm/s. The efflux ratio at 2 h, 1 μM at P-gp (MDR1) was found to be 4.5; on BCRP (hBCRP), 2.9.
In the same order, the values of `Cn1c(Nc2ccc(Br)cc2F)c2c(c(F)c1=O)CCN(OCCO)C2=O` [Example 39, 8-((4-bromo-2-fluorophenyl)amino)-5-fluoro-2-(2-hydroxyethoxy)-7-methyl-3,4-dihydro-2,7-naphthyridine-1,6(2H,7H)-dione] are 0.062 µM, 323 nm/s, 3.9 and 3.2.
The compound `Cc1c2c(c(Nc3ccc(I)cc3F)n(C)c1=O)C(=O)N(OCCO)CC2` [Example 40, 8-((2-fluoro-4-iodophenyl)amino)-2-(2-hydroxyethoxy)-5,7-dimethyl-3,4-dihydro-2,7-naphthyridine-1,6(2H,7H)-dione] yielded an IC50 in data set [1] of 0.004 µM. The Papp at 2 h, 1 μM in data set [2] came out at 284 nm/s. In addition, the efflux ratio at 2 h, 1 μM on P-gp (MDR1) stood at 3.6; at BCRP (hBCRP) it was 1.9.
The like results for `Cn1c(Nc2ccc(Br)cc2F)c2c(c(Br)c1=O)CCN(OCCO)C2=O` [Example 42, 5-bromo-8-((4-bromo-2-fluorophenyl)amino)-2-(2-hydroxyethoxy)-7-methyl-3,4-dihydro-2,7-naphthyridine-1,6(2H,7H)-dione] were, in that order, 0.143 µM, 294 nm/s, 2.8 and 3.3.
The like results for `CCc1ccc(Nc2c3c(c(C)c(=O)n2C)CCN(OCCO)C3=O)c(F)c1` [Example 44, 8-((4-ethyl-2-fluorophenyl)amino)-2-(2-hydroxyethoxy)-5,7-dimethyl-3,4-dihydro-2,7-naphthyridine-1,6(2H,7H)-dione] were, in that order, 0.013 µM, 330 nm/s, 1.1 and 2.7.
The like results for `Cc1c2c(c(Nc3ccc(C4CC4)cc3F)n(C)c1=O)C(=O)N(OCCO)CC2` [Example 45, 8-((4-cyclopropyl-2-fluorophenyl)amino)-2-(2-hydroxyethoxy)-5,7-dimethyl-3,4-dihydro-2,7-naphthyridine-1,6(2H,7H)-dione] were, in that order, 0.02 µM, 318 nm/s, 2.2 and 1.3.
For the compound `Cc1c2c(c(Nc3ccc(I)cc3F)n(C)c1=O)C(=O)NCC2` [Example 48, 8-((2-fluoro-4-iodophenyl)amino)-5,7-dimethyl-3,4-dihydro-2,7-naphthyridine-1,6(2H,7H)-dione], in data set [1], the midpoint of inhibition, the IC50, lay at 0.006 µM. The Papp at 2 h, 1 μM in data set [2] was 162 nm/s. Besides, the efflux ratio at 2 h, 1 μM at P-gp (MDR1) amounted to 1.4; at BCRP (hBCRP), 1.
In data set [1], `Cn1c(Nc2ccc(I)cc2F)c2c(cc1=O)CCNC2=O` [Example 49, 8-((4-iodo-2-fluorophenyl)amino)-7-methyl-3,4-dihydro-2,7-naphthyridine-1,6(2H,7H)-dione trifluoroacetate] returned an IC50 of 0.002 µM. In data set [2], the Papp at 2 h, 1 μM stood at 393 nm/s. Also, the efflux ratio at 2 h, 1 μM on P-gp (MDR1) is 1.4; on BCRP (hBCRP), 1.
The like results for `CSc1ccc(Nc2c3c(cc(=O)n2C)CCNC3=O)c(F)c1` [Example 50, 8-((2-fluoro-4-(methylthio)phenyl)amino)-7-methyl-3,4-dihydro-2,7-naphthyridine-1,6(2H,7H)-dione trifluoroacetate] were, in that order, 0.012 µM, 367 nm/s, 1.2 and 1.3.
In the same order, the values of `CCc1ccc(Nc2c3c(cc(=O)n2C)CCNC3=O)c(F)c1` [Example 51, 8-((4-ethyl-2-fluorophenyl)amino)-7-methyl-3,4-dihydro-2,7-naphthyridine-1,6(2H,7H)-dione] are 0.026 µM, 412 nm/s, 1.2 and 1.2.
`Cn1c(Nc2ccc(C3CC3)cc2F)c2c(cc1=O)CCNC2=O` [Example 52, 8-((4-cyclopropyl-2-fluorophenyl)amino)-7-methyl-3,4-dihydro-2,7-naphthyridine-1,6(2H,7H)-dione] displayed an IC50 in data set [1] of 0.03 µM. The same compound gave an apparent permeability (Papp) at 2 h, 1 μM in data set [2] of 368 nm/s. In addition, the efflux ratio at 2 h, 1 μM was determined as 1.3 at P-gp (MDR1) and 1.2 at BCRP (hBCRP).
